Experimental data taken from PubChem BioAssay (NCI).
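GI50: concentration for 50% inhibition of growth. TGI: total growth inhibition.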

Tests used:
Assay in all cases: DTP human tumour cell line panel, 384-well format
HOP-62 NSCLC = system: HOP-62 NSCLC
IGROV1 ovarian = system: IGROV1 ovarian
SR leukemia = system: SR leukemia
A498 renal = system: A498 renal
OVCAR-8 ovarian = system: OVCAR-8 ovarian
SK-MEL-2 melanoma = system: SK-MEL-2 melanoma
NCI-H522 lung = system: NCI-H522 lung
SK-MEL-28 melanoma = system: SK-MEL-28 melanoma
M14 melanoma = system: M14 melanoma
HCT-116 colon = system: HCT-116 colon
SK-OV-3 ovarian = system: SK-OV-3 ovarian
786-0 renal = system: 786-0 renal
MDA-MB-435 melanoma = system: MDA-MB-435 melanoma

CC(=O)N1CC(F)(F)c2c(Sc3ncc(N4CCC5(CC4)COC[C@H]5N)nc3N)cccc21
GI50 (HOP-62 NSCLC): 13.7 µM | TGI (HOP-62 NSCLC): 30.9 µM | GI50 (IGROV1 ovarian): 6.38 µM | TGI (IGROV1 ovarian): 24.5 µM | GI50 (SR leukemia): 2.35 µM | TGI (SR leukemia): 6.03 µM | GI50 (A498 renal): 2.75 µM | TGI (A498 renal): 20.8 µM | GI50 (OVCAR-8 ovarian): 11.9 µM | TGI (OVCAR-8 ovarian): 30.8 µM | GI50 (SK-MEL-2 melanoma): 16.2 µM | TGI (SK-MEL-2 melanoma): 30.3 µM | GI50 (NCI-H522 lung): 1.56 µM | TGI (NCI-H522 lung): 14.5 µM | GI50 (SK-MEL-28 melanoma): 13.1 µM | TGI (SK-MEL-28 melanoma): 26.2 µM | GI50 (M14 melanoma): 10.4 µM | TGI (M14 melanoma): 22.4 µM | GI50 (HCT-116 colon): 16.2 µM | TGI (HCT-116 colon): 30 µM | GI50 (SK-OV-3 ovarian): 4.82 µM | TGI (SK-OV-3 ovarian): 19.1 µM | GI50 (786-0 renal): 10.7 µM | TGI (786-0 renal): 23.5 µM | GI50 (MDA-MB-435 melanoma): 29.1 µM | TGI (MDA-MB-435 melanoma): 91.7 µM

Cc1nc(NC(=O)N2CCC[C@H]2C(N)=O)sc1-c1ccnc(C(C)(C)C(F)(F)F)c1
GI50 (HOP-62 NSCLC): 18 µM | TGI (HOP-62 NSCLC): > 94.3 µM | GI50 (IGROV1 ovarian): 0.118 µM | TGI (IGROV1 ovarian): 1.34 µM | GI50 (SR leukemia): 3.57 µM | TGI (SR leukemia): 15.6 µM | GI50 (A498 renal): 8.13 µM | TGI (A498 renal): 37.7 µM | GI50 (OVCAR-8 ovarian): 14.3 µM | TGI (OVCAR-8 ovarian): 88.7 µM | GI50 (SK-MEL-2 melanoma): 12.4 µM | TGI (SK-MEL-2 melanoma): 26.2 µM | GI50 (NCI-H522 lung): 4.78 µM | TGI (NCI-H522 lung): 23.8 µM | GI50 (SK-MEL-28 melanoma): 7.87 µM | TGI (SK-MEL-28 melanoma): > 83 µM | GI50 (M14 melanoma): 15 µM | TGI (M14 melanoma): > 74.2 µM | GI50 (HCT-116 colon): 7.62 µM | TGI (HCT-116 colon): 42.8 µM | GI50 (SK-OV-3 ovarian): 0.725 µM | TGI (SK-OV-3 ovarian): 12.1 µM | GI50 (786-0 renal): 17.4 µM | TGI (786-0 renal): 54.8 µM | GI50 (MDA-MB-435 melanoma): 24.6 µM | TGI (MDA-MB-435 melanoma): > 80.3 µM
